Experimental data taken from patent US6737383B1, “Herbicidal oxadiazolidines” (priority 1999, dated 2004).

Tests used:
cocklebur = assay: Test B pre/postemergence cocklebur; assay type: in vivo, Xanthium strumarium
How it was run: (§1)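 Herbicidal effect was estimated by eye on a ten-point control scale after plants spent twelve to sixteen days in a greenhouse following soil or foliar treatment. Foliar sprays targeted plants at one to four leaves; all doses were formulated in a non-phytotoxic solvent with surfactant.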

giant foxtail = assay: Test B pre/postemergence giant foxtail; assay type: in vivo, Setaria faberii
How it was run: as §1

smallflower flatsedge = assay: Test B flood test smallflower flatsedge; assay type: in vivo, Cyperus difformis
How it was run: (§2)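 Flood test on plants grown to the 2-leaf stage; treated plants kept in greenhouse twelve to sixteen days, then visually rated against controls on a 0 (no effect) to 10 (complete control) scale.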

rape = assay: Test B pre/postemergence rape; assay type: in vivo, Brassica napus
How it was run: as §1

wild oat = assay: Test B pre/postemergence wild oat; assay type: in vivo, Avena fatua
How it was run: as §1

soybean = assay: Test B pre/postemergence soybean; assay type: in vivo, Glycine max
How it was run: as §1

pigweed = assay: Test B pre/postemergence pigweed; assay type: in vivo, Amaranthus retroflexus
How it was run: as §1

bamyardgrass = assay: Test B flood test barnyardgrass; assay type: in vivo, Echinochloa crus-galli
How it was run: as §2

sugar beet = assay: Test B pre/postemergence sugar beet; assay type: in vivo, Beta vulgaris
How it was run: as §1

morningglory = assay: Test B pre/postemergence morningglory; assay type: in vivo, Ipomoea hederacea
How it was run: as §1

blackgrass = assay: Test B pre/postemergence blackgrass; assay type: in vivo, Alopecurus myosuroides
How it was run: as §1

surinam grass = assay: Test B pre/postemergence surinam grass; assay type: in vivo, Brachiaria decumbens
How it was run: as §1

wheat = assay: Test B pre/postemergence wheat; assay type: in vivo, Triticum aestivum
How it was run: as §1

bedstraw = assay: Test B pre/postemergence bedstraw; assay type: in vivo, Galium aparine
How it was run: as §1

purple nutsedge = assay: Test B pre/postemergence purple nutsedge; assay type: in vivo, Cyperus rotundus
How it was run: as §1

duck salad = assay: Test B flood test duck salad; assay type: in vivo, Heteranthera limosa
How it was run: as §2

[1] = Preemergence, Rate 62 g/ha, scale of 0 to 10 where 0 is no effect and 10 is complete control
[2] = Preemergence, Rate 125 g/ha, 0 is no effect, 10 is complete control
[3] = Preemergence, Rate 250 g/ha, scale 0 to 10, 0 is no effect, 10 is complete control
[4] = Preemergence, Rate 500 g/ha, scale 0 to 10 (0 no effect, 10 complete control)
[5] = Rate 62 g/ha, Postemergence, scale of 0 to 10 where 0 is no effect and 10 is complete control
[6] = Rate 125 g/ha, Postemergence, scale 0 to 10
[7] = Rate 500 g/ha, Postemergence, scale 0 to 10
[8] = Rate 62 g/ha, headed Pre-emergence (flood test species), scale 0 to 10 (0 no effect, 10 complete control)
[9] = Rate 125 g/ha, Pre-emergence, flood test species, scale 0 to 10 where 0 is no effect and 10 is complete control
[10] = Rate 250 g/ha, Pre-emergence, flood-test species, scale 0 to 10, 0 is no effect, 10 is complete control
[11] = Rate 500 g/ha, headed Pre-emergence (flood test species), scale 0 to 10 (0 no effect, 10 complete control)

Cc1nc(C)c(Cn2c(=O)on(C(=O)N(c3ccc(F)cc3)C(C)C)c2=O)s1 [Compound 192]
5: Cocklebur plant response rating (cocklebur; [7]) | Wild oats plant response rating (wild oat; [3]) | Redroot pigweed plant response rating (pigweed; [3]) | Sugarbeets plant response rating (sugar beet; [7]) | Blackgrass plant response rating (blackgrass; [1]) | Blackgrass plant response rating (0 to 10 scale) (blackgrass; [2])
3: Soybean plant response rating (soybean; [5]) | Soybean plant response rating (soybean; [6]) | Plant response rating (0 to 10; 0 is no effect, 10 is complete control), Soybean (soybean; Rate 250 g/ha, Postemergence) | Soybean plant response rating (soybean; [7]) | Plant response rating (0 to 10; 0 is no effect, 10 is complete control), Redroot pigweed (pigweed; Rate 250 g/ha, Postemergence) | Morningglory plant response rating (morningglory; [4]) | Morningglory plant response rating (morningglory; [6])
4: Rape plant response rating (rape; [3])
9: Giant foxtail plant response rating (0 to 10 scale) (giant foxtail; [2]) | Rape plant response rating (rape; [4]) | Redroot pigweed plant response rating (pigweed; [4])
7: Wild oats plant response rating (wild oat; [4]) | Redroot pigweed plant response rating (pigweed; [7]) | Blackgrass plant response rating (blackgrass; [4])
1: Cocklebur plant response rating (cocklebur; [6]) | Giant foxtail plant response rating (giant foxtail; [7]) | Redroot pigweed plant response rating (pigweed; [6]) | Morningglory plant response rating (morningglory; [5])
6: Plant response rating (0 to 10; 0 is no effect, 10 is complete control), Morningglory (morningglory; Rate 250 g/ha, Postemergence) | Morningglory plant response rating (morningglory; [7]) | Blackgrass plant response rating (blackgrass; [3]) | B. signalgrass plant response rating (surinam grass; [3]) | B. signalgrass plant response rating (surinam grass; [4])
0: Cocklebur plant response rating (cocklebur; [1]) | Cocklebur plant response rating (0 to 10 scale) (cocklebur; [2]) | Cocklebur plant response rating (cocklebur; [3]) | Cocklebur plant response rating (cocklebur; [4]) | Cocklebur plant response rating (cocklebur; [5]) | Giant foxtail plant response rating (giant foxtail; [5]) | Giant foxtail plant response rating (giant foxtail; [6]) | Plant response rating (0 to 10; 0 is no effect, 10 is complete control), Giant foxtail (giant foxtail; Rate 250 g/ha, Postemergence) | S. Flatsedge plant response rating (smallflower flatsedge; [8]) | S. Flatsedge plant response rating (smallflower flatsedge; [9]) | S. Flatsedge plant response rating (smallflower flatsedge; [10]) | S. Flatsedge plant response rating (smallflower flatsedge; Rate 500 g/ha, Pre-emergence, flood test species, scale 0 to 10 (0 no effect, 10 complete control)) | Rape plant response rating (rape; [1]) | Rape plant response rating (0 to 10 scale) (rape; [2]) | Rape plant response rating (rape; [5]) | Rape plant response rating (rape; [6]) | Wild oats plant response rating (wild oat; [1]) | Wild oats plant response rating (wild oat; [5]) | Wild oats plant response rating (wild oat; [6]) | Plant response rating (0 to 10; 0 is no effect, 10 is complete control), Wild oats (wild oat; Rate 250 g/ha, Postemergence) | Soybean plant response rating (soybean; [1]) | Soybean plant response rating (0 to 10 scale) (soybean; [2]) | Redroot pigweed plant response rating (pigweed; [1]) | Redroot pigweed plant response rating (pigweed; [5]) | Barnyardgrass plant response rating (bamyardgrass; [8]) | Barnyardgrass plant response rating (bamyardgrass; [9]) | Barnyardgrass plant response rating (bamyardgrass; [10]) | Plant response rating, Barnyardgrass (bamyardgrass; [11]) | Sugarbeets plant response rating (sugar beet; [1]) | Sugarbeets plant response rating (0 to 10 scale) (sugar beet; [2]) | Sugarbeets plant response rating (sugar beet; [3]) | Sugarbeets plant response rating (sugar beet; [5]) | Sugarbeets plant response rating (sugar beet; [6]) | Plant response rating (0 to 10; 0 is no effect, 10 is complete control), Sugarbeets (sugar beet; Rate 250 g/ha, Postemergence) | Morningglory plant response rating (morningglory; [1]) | Morningglory plant response rating (0 to 10 scale) (morningglory; [2]) | Morningglory plant response rating (morningglory; [3]) | Blackgrass plant response rating (blackgrass; [5]) | Blackgrass plant response rating (blackgrass; [6]) | Plant response rating (0 to 10; 0 is no effect, 10 is complete control), Blackgrass (blackgrass; Rate 250 g/ha, Postemergence) | B. signalgrass plant response rating (surinam grass; [1]) | B. signalgrass plant response rating (0 to 10 scale) (surinam grass; [2]) | B. signalgrass plant response rating (surinam grass; [5]) | B. signalgrass plant response rating (surinam grass; Rate 125 g/ha, Postemergence, scale 0 (no effect) to 10 (complete control)) | Plant response rating, B. signalgrass (surinam grass; Rate 250 g/ha, Postemergence, scale 0 to 10, 0 is no effect, 10 is complete control) | Wheat plant response rating (wheat; [1]) | Wheat plant response rating (wheat; [3]) | Wheat plant response rating (wheat; [4]) | Wheat plant response rating (wheat; [5]) | Wheat plant response rating (wheat; [6]) | Plant response rating (0 to 10; 0 is no effect, 10 is complete control), Wheat (wheat; Rate 250 g/ha, Postemergence) | Bedstraw plant response rating (bedstraw; [1]) | Bedstraw plant response rating (0 to 10 scale) (bedstraw; [2]) | Bedstraw plant response rating (bedstraw; [3]) | Bedstraw plant response rating (bedstraw; [4]) | Bedstraw plant response rating (bedstraw; [5]) | Bedstraw plant response rating (bedstraw; [6]) | Plant response rating (0 to 10; 0 is no effect, 10 is complete control), Bedstraw (bedstraw; Rate 250 g/ha, Postemergence) | Bedstraw plant response rating (bedstraw; [7]) | Nutsedge plant response rating (purple nutsedge; [1]) | Nutsedge plant response rating (0 to 10 scale) (purple nutsedge; [2]) | Nutsedge plant response rating (purple nutsedge; [5]) | Nutsedge plant response rating (purple nutsedge; [6]) | Plant response rating (0 to 10; 0 is no effect, 10 is complete control), Nutsedge (purple nutsedge; Rate 250 g/ha, Postemergence) | Nutsedge plant response rating (purple nutsedge; [7]) | Ducksalad plant response rating (duck salad; [8]) | Ducksalad plant response rating (duck salad; [9]) | Ducksalad plant response rating (duck salad; [10]) | Plant response rating, Ducksalad (duck salad; [11])
10: Giant foxtail plant response rating (giant foxtail; [3]) | Giant foxtail plant response rating (giant foxtail; [4])
2: Plant response rating (0 to 10; 0 is no effect, 10 is complete control), Cocklebur (cocklebur; Rate 250 g/ha, Postemergence) | Plant response rating (0 to 10; 0 is no effect, 10 is complete control), Rape (rape; Rate 250 g/ha, Postemergence) | Rape plant response rating (rape; [7]) | Soybean plant response rating (soybean; [3]) | Soybean plant response rating (soybean; [4]) | Redroot pigweed plant response rating (0 to 10 scale) (pigweed; [2]) | B. signalgrass plant response rating (surinam grass; Rate 500 g/ha, Postemergence, scale 0 to 10, 0 no effect, 10 complete control)
8: Giant foxtail plant response rating (giant foxtail; [1]) | Sugarbeets plant response rating (sugar beet; [4])
